Where a SMILES comes first, the peptide text is derived from it. Where no end group is shown, it is not given here.

The nature of the first data set: Visible dissolution of peptides in DMSO / 0.9% NaCl for pool formulation. Conditions: Peptide Synthesis Engineering Run Batch for Sample GGGGG; visual appearance of the peptide solution (Clear / Semi Cloudy / Cloudy). The class given is physicochemical. Here is the method:
Groups of peptides are selected and pooled. Up to four (4) pools with not more than (NMT) five (5) peptides in each pool were prepared. Each peptide was dissolved in 5.538% (v/v) DMSO followed by 0.9% NaCl solution, at a concentration of each peptide at 0.4158 mg/mL. Peptides which were visibly dissolved were accepted for that group's pool. Upon successful pooling of all peptides within a group, the pool was filtered through a 0.2 μm Nylon filter. Peptides were shipped in sterile tubes and labeled with Pool name, lot #, components, manufacturing data, quantity/concentration and storage conditions.
For the compound `CC[C@H](C)[C@H](NC(=O)[C@H](CO)NC(=O)[C@H](CC(=O)O)NC(=O)[C@H](CCC(=O)O)NC(=O)[C@H](C)NC(=O)CN)C(=O)N[C@@H](CC(=O)O)C(=O)N[C@@H](CO)C(=O)N1CCC[C@H]1C(=O)N[C@@H](CO)C(=O)N[C@@H](C)C(=O)N[C@@H](CS)C(=O)N1CCC[C@H]1C(=O)N[C@@H](CC(C)C)C(=O)N[C@@H](CO)C(=O)N[C@H](C(=O)NCC(=O)N[C@@H](CS)C(=O)N1CCC[C@H]1C(=O)N[C@@H](C)C(=O)N[C@@H](CC(C)C)C(=O)O)[C@@H](C)O` [GGGGG.21] (H-GAEDSIDSPSACPLSTGCPAL-OH; N-terminus and C-terminus assumed), the “Visual solubility (appearance of the peptide solution)” value (“Visual solubility” for short) was “Clear”.

As to SAPGSSRLAAV [GGGGG.36], the “Visual solubility” value is reported as “Clear”.

As to MSYELKCAQEL [GGGGG.49], the “Visual solubility” value is reported as “Clear”.

In the case of PSAPQQEGVASKEKEEV [GGGGG.4], the “Visual solubility” value is recorded as “Clear”.

As to LDRQHVQHQLLVILKELRK [GGGGG.34], the “Visual solubility” value is listed as “Clear”.

LIKPPAHTSAILTVLR [GGGGG.30]: the “Visual solubility” value is “Clear”.

Take TSAPGSSRLAA [GGGGG.47]: the “Visual solubility” value is given as “Clear”.

For the compound FQSLCQAPPLLKDKVLTALE [GGGGG.8], the “Visual solubility” value is listed as “Clear”.

On to VDLKFPASVPTGAQDLISKL [GGGGG.25], for which the “Visual solubility” value is on record as “Clear”.

In the case of APGSSRLA [GGGGG.43], the “Visual solubility” value is listed as “Clear”.

For MSYELKCAQELSQKQDG [GGGGG.31], the “Visual solubility” value is “Clear”.

Turning to VLGTSAPGSSRLAAVDLGG [GGGGG.2], the “Visual solubility” value is “Clear”.

Staying with this data set, now noted: Peptide synthesis engineering run batch for sample DDDDD_2020; appearance of the solution.
For LQMLCPQEAPQILSRLEAVR [DDDDD.7], the Solubility entry is on record as “Clear”.

As for RRACGARTL [DDDDD.37], the Solubility result is “Clear”.

Consider RRWRKLYRANSHLFQAKRFN [DDDDD.24], for which the Solubility entry is listed as “Clear”.

As to WLPELPSLPSNGDPPAICE [DDDDD.15], the Solubility entry is listed as “Clear”.

As to FEAPGFNTTTA [DDDDD.45], the Solubility entry is given as “Clear”.

The same data set, now with this note: Peptide synthesis engineering run batch for sample FFFFF; appearance of the solution.
Turning to VGRAWDAITDHLVGLCISKSP [FFFFF.19], the Solubility entry is listed as “Clear”.

Take LLLQEEEL [FFFFF.42]: the Solubility entry was “Clear”.

As for SLLLQEEEL [FFFFF.39], the Solubility result was “Cloudy”.

FLSPGQLLQEPRTSLLIINNT [FFFFF.20]: the Solubility entry is “Cloudy”.

For HKDAVTCVNFSSSGHLLASGSR [FFFFF.29], the Solubility result is recorded as “Clear”.

These data come from patent US20230197192A1, “SELECTING NEOANTIGENS FOR PERSONALIZED CANCER VACCINE” (AMAZON TECHNOLOGIES, INC., priority 2020, published 2023).
